Reference: the supplement of paper PMC10307832

What was measured:
Experiment in all cases: relative viability (nuclei count vs DMSO), 5 days (fraction); higher = more cells survive
[1] = compound: CC1=CC(=C(N1C2=CC=C(C=C2)Cl)C)C(=O)CN3CCCCC3 [IU1-47] + CC(=O)Nc1cccc(-n2c(=O)n(C3CC3)c(=O)c3c(Nc4ccc(I)cc4F)n(C)c(=O)c(C)c32)c1 [Trametinib] (partner 0.02 µM)
How it was run: (§1)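 One day after seeding in 1536-well plates, lung cancer cell lines were dosed by pin tool. Dosing was either single-drug or a fixed anchor-drug dose plus five library-drug doses (not always all listed) in √10 steps. After 5 days, nuclei were stained in one fix-and-stain step and counted on 4× images, and relative viability is the nuclei count of treated wells over that of vehicle wells, given as the median of duplicate plates.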

[2] = compound: CC1=CC(=C(N1C2=CC=C(C=C2)Cl)C)C(=O)CN3CCCCC3 [IU1-47] + C[C@@H](Oc1cc(-c2cnn(C3CCNCC3)c2)cnc1N)c1c(Cl)ccc(F)c1Cl [Crizotinib] (partner 1 µM)
How it was run: as §1

[3] = compound: Cc1nc(C(=O)NCC(=O)O)c(O)c2ccc(Oc3ccccc3)cc12 [FG-4592] + CC(C)C[C@H](NC(=O)[C@H](Cc1ccccc1)NC(=O)c1cnccn1)B(O)O [Bortezomib] (partner 0.002 µM)
How it was run: as §1

[4] = compound: Cc1nc(C(=O)NCC(=O)O)c(O)c2ccc(Oc3ccccc3)cc12 [FG-4592] + Nc1nc2[nH]cc(CCc3ccc(C(=O)N[C@@H](CCC(=O)O)C(=O)O)cc3)c2c(=O)[nH]1 [Pemetrexed] (partner 0.2 µM)
How it was run: as §1

UMC-11
relative viability ([1]; first compound 0.08 µM): 0.681
relative viability ([1]; first compound 0.253 µM): 0.681
relative viability ([1]; first compound 0.8 µM): 0.748
relative viability ([1]; first compound 2.53 µM): 0.741
relative viability ([1]; first compound 8 µM): 0.664
relative viability ([2]; first compound 0.08 µM): 0.564
relative viability ([2]; first compound 0.253 µM): 0.641
relative viability ([2]; first compound 0.8 µM): 0.476
relative viability ([2]; first compound 2.53 µM): 0.673
relative viability ([2]; first compound 8 µM): 0.574
relative viability ([3]; first compound 0.08 µM): 0.752
relative viability ([3]; first compound 0.253 µM): 0.771
relative viability ([3]; first compound 0.8 µM): 0.633
relative viability ([3]; first compound 2.53 µM): 0.75
relative viability ([3]; first compound 8 µM): 0.692
relative viability ([4]; first compound 0.08 µM): 0.738
relative viability ([4]; first compound 0.253 µM): 0.867
relative viability ([4]; first compound 0.8 µM): 0.843
relative viability ([4]; first compound 2.53 µM): 0.791
relative viability ([4]; first compound 8 µM): 0.688
